Patent US8168400B2, “Methods and kits for detection of thromboxane A2 metabolites” (Corgenix Medical Corporation, priority 2005, dated 2012)
Entries after “also recorded” stand apart in the source; their conditions may differ.

Tests used:
[1] = system: monoclonal antibodies of the present invention (anti-11 dhTxB2 / 11 dh2,3dTxB2 mAb); assay: Monoclonal antibody specificity: percent cross-reactivity (enzyme-based competition assay); format: binding, mouse; settings: for % Reactivity (cross reactivity): relative to 11 dh TxB2 = 100%
Description: The present invention provides a urinary 11dhTxB2 Competitive ELISA Assay. An illustrative standard curve was prepared (see FIG. 6) by spiking known amounts of 11dhTxB2 into low level urine diluted 1:5 in Tris assay buffer (0.1M Tris, 0.1% BSA) or into assay buffer alone. 100 μl of standards or actual samples (having taken known amounts of aspirin and diluted 1:5 in Tris assay buffer) was added to wells coated with goat anti-mouse antibody, followed by the addition of 50 μl of 11 dhTxB2-AP (alkaline phosphatase) tracer and 50 μl of 11 dhTxB2 mAb. The reactions were then allowed to incubate for a predetermined amount of time, typically with shaking at room temperature. In preferred embodiments the incubation is about two hours in length. Each well is then washed with a wash buffer and approximately 200 μl of substrate added (p-nitrophenyl-phosphate, pNPP). The reactions are then incubated again for approximately thirty minutes. A stop solution is added to each well, and the plate read for OD at 405 nm.
Antibody clones of the invention were tested to determine cross-reactivity against various Thromboxane A2 metabolites and other like compounds. Table 2 provides percent cross reactivity of antibodies of the present invention against these various compounds: […]

[2] = system: urinary 11dhTxB2 (TxA2 metabolites); assay: Urinary 11dhTxB2 competitive ELISA in subjects on aspirin; format: in vivo, human; settings: for urinary 11dhTxB2 per mg creatinine, average patient value: healthy no-aspirin average 1119 pg/mg
Description: The present invention provides a urinary 11dhTxB2 Competitive ELISA Assay. An illustrative standard curve was prepared (see FIG. 6) by spiking known amounts of 11dhTxB2 into low level urine diluted 1:5 in Tris assay buffer (0.1M Tris, 0.1% BSA) or into assay buffer alone. 100 μl of standards or actual samples (having taken known amounts of aspirin and diluted 1:5 in Tris assay buffer) was added to wells coated with goat anti-mouse antibody, followed by the addition of 50 μl of 11 dhTxB2-AP (alkaline phosphatase) tracer and 50 μl of 11 dhTxB2 mAb. The reactions were then allowed to incubate for a predetermined amount of time, typically with shaking at room temperature. In preferred embodiments the incubation is about two hours in length. Each well is then washed with a wash buffer and approximately 200 μl of substrate added (p-nitrophenyl-phosphate, pNPP). The reactions are then incubated again for approximately thirty minutes. A stop solution is added to each well, and the plate read for OD at 405 nm. Results from the assay provide for the amount of 11dhTxB2 and 11 dh2,3dTxB2 present in the sample (note that results are compared to the standard curve). The amount of the two metabolites present in the sample is indirectly proportional to the optical density read at 405 nm. For clinical samples, creatinine values are also obtained, and data from assays presented as pg metabolite/mg creatinine. Initially, 171 urine samples were taken from subjects either off aspirin or on 81 or 325 mg aspirin/day. TxA2 metabolite amounts were determined for each sample using the methods and kits of the present invention. Values were normalized for urinary dilution by dividing TxA2 metabolite amounts by creatinine concentrations. 354 urine samples from subjects either on or off aspirin therapy were run using the methods and kits of the present invention. Values were calculated and normalized for urinary dilution by dividing by creatinine concentration, and the frequency of each concentration was calculated and shown in a frequency plot, FIG. 5. Subjects on aspirin are plotted with solid bars and subjects not on aspirin are plotted using hatched bars. Positive samples are below 1500 pg/mg creatinine cutoff, whereas negative samples are those that are above the 1500 pg/mg creatinine cutoff. As shown in FIGS. 4-5, clinical data can be obtained using the above-described methods. […] The assay detection range was suitable for measurement of 11dhTxB2 in a population (62-3122 pg 11dhTxB2/mg creatinine—see FIG. 7). […] All three levels of aspirin doses are statistically significant when compared to the healthy, no aspirin controls.

platelet COX-1 = biological target: T1, platelet COX-1 (Homo sapiens, UniProt P23219); settings: low dose aspirin; cited from earlier work
T1 construct: host or cells: platelets (in vivo, patients on low dose aspirin)
T1 sequence (P23219 24-599): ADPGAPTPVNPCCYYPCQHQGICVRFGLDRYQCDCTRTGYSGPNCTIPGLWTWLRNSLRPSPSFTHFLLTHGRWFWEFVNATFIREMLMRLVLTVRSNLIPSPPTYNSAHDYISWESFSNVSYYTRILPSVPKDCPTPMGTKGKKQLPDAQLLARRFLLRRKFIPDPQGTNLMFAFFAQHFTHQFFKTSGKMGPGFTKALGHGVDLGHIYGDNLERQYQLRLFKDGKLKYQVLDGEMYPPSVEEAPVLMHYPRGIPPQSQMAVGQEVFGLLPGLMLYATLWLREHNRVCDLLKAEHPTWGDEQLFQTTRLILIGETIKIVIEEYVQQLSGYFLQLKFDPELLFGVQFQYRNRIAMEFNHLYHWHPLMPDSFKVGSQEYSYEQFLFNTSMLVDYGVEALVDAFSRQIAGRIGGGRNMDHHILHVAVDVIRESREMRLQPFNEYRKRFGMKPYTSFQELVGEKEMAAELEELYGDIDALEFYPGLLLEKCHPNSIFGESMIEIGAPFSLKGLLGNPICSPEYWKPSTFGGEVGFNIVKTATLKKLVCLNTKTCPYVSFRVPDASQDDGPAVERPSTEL

[3] = low dose aspirin; patients with arterial vascular disease; cited from earlier work
[4] = aspirin ingestion present, 354 urine samples in total

Compound	reactivity of the antibodies with the compound (in words) [1]	% Reactivity (cross reactivity) [1]	other results
O=C(O)CCCCC(=O)CCC1C(O)CC(=O)C1CCC(=O)O (stereo not shown) [2,3,4,5-tetranor-20-Carboxy 13,14-dihydro-15-keto PGE2]	unreactive	<0.01%	
O=C(O)CCCCC(=O)CCC1C(O)CC(O)C1CCC(=O)O (stereo not drawn) [2,3,4,5-tetranor-20-Carboxy 13,14-dihydro-15-keto PGF2α]	unreactive	<0.01%	
CCCCCC(O)C=CC1OC(=O)CC(O)C1CC=CCC(=O)O (stereo not shown) [11-dehydro-2,3 dinor thromboxane B2]	react; also recorded: high reactivity	166%	
CCCCC[C@H](O)/C=C/[C@H]1C(=O)C[C@H](O)[C@@H]1C/C=C\CCCC(=O)O [PGD2]	unreactive	0.2%	
CC(=O)Oc1ccccc1C(=O)O [aspirin, acetyl salicylic acid]			urinary 11dhTxB2 per mg creatinine, average patient value ([2]; aspirin 81 mg/day): 418 pg/mg; urinary 11dhTxB2 per mg creatinine, average patient value ([2]; aspirin 162 mg/day): 471 pg/mg; urinary 11dhTxB2 per mg creatinine, average patient value ([2]; aspirin 325 mg/day): 377 pg/mg; number of urine samples Negative (>1500 pg/creatinine) [2, 4]: 16; number of urine samples Positive (<1500 pg/creatinine) [2, 4]: 251; block of platelet COX-1 activity (platelet COX-1): more than 95%; reduction of cardiovascular events [3]: ≤ 25%

Second part, led by results:

reactivity of the antibodies with the compound (in words) [1]	% Reactivity (cross reactivity) [1]	Compound	other results
unreactive	1.93%	CCCCC[C@H](O)/C=C/[C@H]1OC(O)C[C@H](O)[C@@H]1C/C=C\CC(=O)O (stereo partly shown) [2,3 dinor TxB2]	
unreactive	<0.01%	CCCCC[C@H](O)/C=C/[C@@H]1[C@@H](CC(=O)CCCCC(=O)O)[C@@H](O)C[C@H]1O [6-keto PGF1a]	
react; also recorded: high reactivity	100%	CCCCCC(O)C=CC1OC(=O)CC(O)C1CC=CCCCC(=O)O (stereo not shown) [11 dh TxB2, 11-dehydro Thromboxane B2]	
unreactive	<0.01%	CCCCC[C@H](O)/C=C/[C@H]1[C@H](O)CC(=O)[C@@H]1C/C=C\CCCC(=O)O [PGE2]	
unreactive	0.05%	CCCCC[C@H](O)/C=C/[C@H]1OC(O)C[C@H](O)[C@@H]1C/C=C\CCCC(=O)O (stereo partly shown) [TxB2, thromboxane B2]	
